Test results published in patent EP0745599A2, “1-(3-Heterocyclylphenyl)-s-triazine-2,4,6-oxo or thiotrione herbicidal agents” (American Cyanamid Company, priority 1995, dated 1996).

Tests used:
Type in all cases: in vivo
Settings in all cases: rated four to five weeks after treatment
[1] = tested on: ORYZA SATIVA, L. TEBONNET; test: Postemergence herbicidal evaluation, ORYSAT (Rice, Tebonnet)
Protocol: (§1) In the tests, seedling plants are grown in jiffy flats for about two weeks. The test compounds are dispersed in 50/50 acetone/water mixtures containing 0.5% TWEEN®20, a polyoxyethylene sorbitan monolaurate surfactant of Atlas Chemical Industries, in sufficient quantities to provide the equivalent of about 0.125 kg to 0.500 kg per hectare of active compound when applied to the plants through a spray nozzle operating at 40 psi for a predetermined time. After spraying, the plants are placed on greenhouse benches and are cared for in the usual manner, commensurate with conventional greenhouse practices. From four to five weeks after treatment, the seedling plants are examined and rated according to the rating system set forth below. Where more than one test is involved for a given compound, the data are averaged.
(§2) Results of herbicide evaluation are expressed on a rating scale (0-9). The scale is based upon a visual observation of plant stand, vigor, malformation, size, chlorosis and overall plant appearance as compared with a control.

[2] = tested on: SETARIA VIRIDIS, (L) BEAU; test: Postemergence herbicidal evaluation, SETVI (Foxtail, Green)
Protocol: as §1, §2

[3] = tested on: ECHINOCHLOA CRUS-GALLI, (L) BEAU; test: Postemergence herbicidal evaluation, ECHCG (Barnyardgrass)
Protocol: as §1, §2

[4] = tested on: IPOMOEA SPP.; test: Preemergence herbicidal evaluation, IPOSS (Morningglory Spp.); parameters: key to IPOSS: visual rating scale 0-9 vs control
Source text: as §2
(§3) The preemergence herbicidal activity of the test compounds of the present invention is exemplified by the following tests in which the seeds of a variety of monocotyledonous and dicotyledonous plants are separately mixed with potting soil and planted on top of approximately one inch of soil in separate pint cups. After planting, the cups are sprayed with the selected aqueous acetone solution containing test compound in sufficient quantity to provide the equivalent of about 0.125 to 0.50 kg per hectare of test compound per cup. The treated cups are then placed on greenhouse benches, watered and cared for in accordance with conventional greenhouse procedures. From four to five weeks after treatment, the tests are terminated and each cup is examined and rated according to the rating system provided in Example 42.

[5] = tested on: ABUTILON THEOPHRASTI, MEDIC.; test: Preemergence herbicidal evaluation, ABUTH (Velvetleaf); parameters: key to ABUTH: visual rating scale 0-9 vs control
Source text: as §2, §3

[6] = tested on: CHENOPODIUM ALBUM, L.; test: Preemergence herbicidal evaluation, CHEAL (Lambsquarters, Common); parameters: key to CHEAL: visual rating scale 0-9 vs control
Source text: as §2, §3

[7] = tested on: GLYCINE MAX(L)MERR. CV. WILLIAMS; test: Preemergence herbicidal evaluation, GLXMAW (Soybean, Williams); parameters: key to GLXMAW: visual rating scale 0-9 vs control
Source text: as §2, §3

[8] = tested on: AMBROSIA ARTEMISIIFOLIA, L.; test: Preemergence herbicidal evaluation, AMBEL (Ragweed, Common); parameters: key to AMBEL: visual rating scale 0-9 vs control
Source text: as §2, §3

[9] = tested on: CASSIA OBTUSIFOLIA, L.; test: Postemergence herbicidal evaluation, CASOB (Sicklepod)
Protocol: as §1, §2

[10] = tested on: ZEA MAYS L.; test: Preemergence herbicidal evaluation, ZEAMX (Corn, Field); parameters: key to ZEAMX: visual rating scale 0-9 vs control
Source text: as §2, §3

[11] = tested on: TRITICUM AESTIVUM, CV. APOLLO; test: Preemergence herbicidal evaluation, TRZAWO (Wheat, Winter, CV. APOLLO); parameters: key to TRZAWO: visual rating scale 0-9 vs control
Source text: as §2, §3

[12] = tested on: ECHINOCHLOA CRUS-GALLI, (L) BEAU; test: Preemergence herbicidal evaluation, ECHCG (Barnyardgrass); parameters: key to ECHCG: visual rating scale 0-9 vs control
Source text: as §2, §3

[13] = tested on: ORYZA SATIVA, L. TEBONNET; test: Preemergence herbicidal evaluation, ORYSAT (Rice, Tebonnet); parameters: key to ORYSAT: visual rating scale 0-9 vs control
Source text: as §2, §3

[14] = tested on: GALIUM APARINE; test: Preemergence herbicidal evaluation, GALAP (Galium); parameters: key to GALAP: visual rating scale 0-9 vs control
Source text: as §2, §3

[15] = tested on: TRITICUM AESTIVUM, CV. APOLLO; test: Postemergence herbicidal evaluation, TRZAWO (Wheat, Winter, CV. APOLLO)
Protocol: as §1, §2

[16] = tested on: CASSIA OBTUSIFOLIA, L.; test: Preemergence herbicidal evaluation, CASOB (Sicklepod); parameters: key to CASOB: visual rating scale 0-9 vs control
Source text: as §2, §3

[17] = tested on: SETARIA VIRIDIS, (L) BEAU; test: Preemergence herbicidal evaluation, SETVI (Foxtail, Green); parameters: key to SETVI: visual rating scale 0-9 vs control
Source text: as §2, §3

With `C#CCn1c(=O)n(CC=C)c(=O)n(-c2cc(N3C(=O)C4=C(CCCC4)C3=O)c(F)cc2Cl)c1=O` [Compound 20, N-{5-[3-Allylhexahydro-2,4,6-trioxo-5-(2-propynyl)-s-triazin-1-yl]-4-chloro-2-fluoro-phenyl}-1-cyclohexene-1,2-dicarboximide] the “Herbicide rating (0-9) ORYSAT” value ([1]; 0.125 kg/ha) was 2.0, the “Herbicide rating (0-9) ORYSAT” value ([1]; 0.250 kg/ha) was 2.0 and the “Herbicide rating (0-9) ORYSAT” value ([1]; 0.500 kg/ha) was 2.0. For the same molecule, the “Herbicide rating (0-9) SETVI” value ([2]; 0.125 kg/ha) was 0.0, the “Herbicide rating (0-9) SETVI” value ([2]; 0.250 kg/ha) was 0.0 and the “Herbicide rating (0-9) SETVI” value ([2]; 0.500 kg/ha) was 0.0. For the same molecule, the “Herbicide rating (0-9) ECHCG” value ([3]; 0.125 kg/ha) was 0.0, the “Herbicide rating (0-9) ECHCG” value ([3]; 0.250 kg/ha) was 0.0 and the “Herbicide rating (0-9) ECHCG” value ([3]; 0.500 kg/ha) was 0.0.
`CC(C)OC(=O)Cn1c(=O)n(C)c(=O)n(-c2cc(N3C(=O)C4C[S+]([O-])CCN4C3=O)c(F)cc2Cl)c1=O` (stereo not drawn) [Compound 14, Isopropyl 3-[2-chloro-4-fluoro-5-(tetra-hydro-1,3,7-trioxo-1H-imidazo[5,1-c][1,4]-thiazin-2(3H)-yl)phenyl]tetrahydro-5-methyl-2,4,6-trioxo-s-triazine-1(2H)-acetate] was tested, and the IPOSS ([4]; Rate 0.125 kg/ha) was 0.0, the IPOSS ([4]; Rate 0.250 kg/ha) was 1.0 and the IPOSS ([4]; Rate 0.500 kg/ha) was 3.0. The ABUTH ([5]; Rate 0.125 kg/ha) was 0.0, the ABUTH ([5]; Rate 0.250 kg/ha) was 0.0 and the ABUTH ([5]; Rate 0.500 kg/ha) was 4.0. It also gave a CHEAL ([6]; Rate 0.125 kg/ha) of 7.0, a CHEAL ([6]; Rate 0.250 kg/ha) of 6.0 and a CHEAL ([6]; Rate 0.500 kg/ha) of 9.0. For the same molecule, the GLXMAW ([7]; Rate 0.125 kg/ha) was 0.0, the GLXMAW ([7]; Rate 0.250 kg/ha) was 0.0 and the GLXMAW ([7]; Rate 0.500 kg/ha) was 0.0. For the same molecule, the AMBEL ([8]; Rate 0.125 kg/ha) was 0.0, the AMBEL ([8]; Rate 0.250 kg/ha) was 2.0 and the AMBEL ([8]; Rate 0.500 kg/ha) was 3.0. For the same molecule, the “Herbicide rating (0-9) CASOB” value ([9]; 0.125 kg/ha) was 5.0, the “Herbicide rating (0-9) CASOB” value ([9]; 0.250 kg/ha) was 5.0 and the “Herbicide rating (0-9) CASOB” value ([9]; 0.500 kg/ha) was 5.0. For the same molecule, the “Herbicide rating (0-9) SETVI” value ([2]; 0.125 kg/ha) was 1.0, the “Herbicide rating (0-9) SETVI” value ([2]; 0.250 kg/ha) was 1.0 and the “Herbicide rating (0-9) SETVI” value ([2]; 0.500 kg/ha) was 1.0. The ZEAMX ([10]; Rate 0.125 kg/ha) was 0.0, the ZEAMX ([10]; Rate 0.250 kg/ha) was 0.0 and the ZEAMX ([10]; Rate 0.500 kg/ha) was 1.0. The TRZAWO ([11]; Rate 0.125 kg/ha) was 0.0, the TRZAWO ([11]; Rate 0.250 kg/ha) was 1.0 and the TRZAWO ([11]; Rate 0.500 kg/ha) was 2.0. The ECHCG ([12]; Rate 0.125 kg/ha) was 0.0, the ECHCG ([12]; Rate 0.250 kg/ha) was 0.0 and the ECHCG ([12]; Rate 0.500 kg/ha) was 0.0. For the same molecule, the ORYSAT ([13]; Rate 0.125 kg/ha) was 0.0, the ORYSAT ([13]; Rate 0.250 kg/ha) was 2.0 and the ORYSAT ([13]; Rate 0.500 kg/ha) was 4.0. For the same molecule, the GALAP ([14]; Rate 0.125 kg/ha) was 7.0, the GALAP ([14]; Rate 0.250 kg/ha) was 7.0 and the GALAP ([14]; Rate 0.500 kg/ha) was 9.0. For the same molecule, the “Herbicide rating (0-9) ECHCG” value ([3]; 0.125 kg/ha) was 0.0, the “Herbicide rating (0-9) ECHCG” value ([3]; 0.250 kg/ha) was 0.0 and the “Herbicide rating (0-9) ECHCG” value ([3]; 0.500 kg/ha) was 0.0. The “Herbicide rating (0-9) TRZAWO” value ([15]; 0.125 kg/ha) was 2.0, the “Herbicide rating (0-9) TRZAWO” value ([15]; 0.250 kg/ha) was 2.0 and the “Herbicide rating (0-9) TRZAWO” value ([15]; 0.500 kg/ha) was 2.0. The CASOB ([16]; Rate 0.125 kg/ha) was 2.0, the CASOB ([16]; Rate 0.250 kg/ha) was 2.0 and the CASOB ([16]; Rate 0.500 kg/ha) was 4.0. The SETVI ([17]; Rate 0.125 kg/ha) was 0.0, the SETVI ([17]; Rate 0.250 kg/ha) was 0.0 and the SETVI ([17]; Rate 0.500 kg/ha) was 1.0.
